Test results published in PubChem BioAssay AID330 (DTP/NCI, 2004).
Where “and” joins values, the source holds several entries; their conditions need not be identical. Equal entries are not always repeated. Inconclusive results and toxic doses are left out.

Test system: P388 leukemia ip, CD2F1 mice, survival T/C
Assay: NCI In Vivo Anticancer Drug Screen. Data for tumor model P388 Leukemia (intraperitoneal) in CD2F1 (CDF1) mice
Settings: endpoint: median survival time, higher = longer survival
How it was run: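 Mice carrying the transplanted tumor received test compound or vehicle. Survival was recorded in each group, and the value is the treated-group measurement divided by that of the vehicle-treated control group.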

[1] = dose: 50.0 mg/kg/injection, schedule: Q01DX005 (ip), vehicle: saline
[2] = dose: 100.0 mg/kg/injection, schedule: Q01DX005 (ip), vehicle: saline
[3] = dose: 60.0 mg/kg/injection, schedule: Q01DX005 (ip), vehicle: saline with Tween-80
[4] = dose: 120.0 mg/kg/injection, schedule: Q01DX005 (ip), vehicle: saline with Tween-80
[5] = dose: 240.0 mg/kg/injection, schedule: Q01DX005 (ip), vehicle: saline with Tween-80
[6] = dose: 50.0 mg/kg/injection, schedule: Q01DX005 (ip), vehicle: saline with Tween-80
[7] = dose: 100.0 mg/kg/injection, schedule: Q01DX005 (ip), vehicle: saline with Tween-80
[8] = dose: 200.0 mg/kg/injection, schedule: Q01DX005 (ip), vehicle: saline with Tween-80
[9] = dose: 400.0 mg/kg/injection, schedule: Q04DX003 (ip), vehicle: Klucel (hydroxypropylcellulose) (HPC)
[10] = dose: 50.0 mg/kg/injection, schedule: Q01DX009 (ip), vehicle: saline with Tween-80
[11] = dose: 100.0 mg/kg/injection, schedule: Q01DX009 (ip), vehicle: saline with Tween-80
[12] = dose: 200.0 mg/kg/injection, schedule: Q01DX009 (ip), vehicle: saline with Tween-80

`CCN=c1cc2oc3cc(NCC)c(C)cc3c(-c3ccccc3C(=O)OCC)c-2cc1C` was tested, and the T/C (dose: 0.4 mg/kg/injection, schedule: Q01DX005 (ip), vehicle: saline with Tween-80) was 110 % of control, the T/C (dose: 0.8 mg/kg/injection, schedule: Q01DX005 (ip), vehicle: saline with Tween-80) was 116 % of control and the T/C (dose: 1.6 mg/kg/injection, schedule: Q01DX005 (ip), vehicle: saline with Tween-80) was 119 % of control.
For `COC1C(N)C(OC2C(Oc3cccc4c(O)c5c(=O)oc6ccc(C)c7c(=O)oc(c34)c5c67)OC(C)C(O)C2(C)O)OC(C)C1O` (centres undefined), the T/C (dose: 0.63 mg/kg/injection, schedule: Q01DX009 (ip), vehicle: other) was 183 % of control, the T/C (dose: 1.25 mg/kg/injection, schedule: Q01DX009 (ip), vehicle: other) was 198 % of control and the T/C (dose: 2.5 mg/kg/injection, schedule: Q01DX009 (ip), vehicle: other) was 202 % of control. The T/C (dose: 5.0 mg/kg/injection, schedule: Q01DX009 (ip), vehicle: other) was 276 % of control.
`CN(CCNN1CCCC1)Cc1ccccc1Cl` was tested, and the T/C (dose: 12.5 mg/kg/injection, schedule: Q01DX005 (ip), vehicle: saline) was 102 % of control, the T/C (dose: 25.0 mg/kg/injection, schedule: Q01DX005 (ip), vehicle: saline) was 105 % of control and the T/C [1] was 102 % of control and 108 % of control. The T/C [2] was 103 % of control.
For `COc1ccc(NC(=O)CCC(=O)CC(=O)c2ccc(C)cc2)cc1`, the T/C [3] was 105 % of control, the T/C [4] was 106 % of control and the T/C [5] was 101 % of control.
`NNc1ncnc2cccc(Cl)c12` was tested, and the T/C [3] was 94 % of control, the T/C [4] was 98 % of control and the T/C [5] was 92 % of control.
In the case of `ClC(Cl)=C(Cl)C(Cl)=C(Cl)Cl`, the T/C (dose: 50.0 mg/kg/injection, schedule: Q01DX001 (ip), vehicle: saline) was 108 % of control and the T/C (dose: 100.0 mg/kg/injection, schedule: Q01DX001 (ip), vehicle: saline) was 100 % of control.
`Cn1cc(Cl)nc1CO` was tested, and the T/C (dose: 50.0 mg/kg/injection, schedule: Q04DX003 (ip), vehicle: saline sonified) was 95 % of control, the T/C (dose: 100.0 mg/kg/injection, schedule: Q04DX003 (ip), vehicle: saline sonified) was 100 % of control and the T/C (dose: 200.0 mg/kg/injection, schedule: Q04DX003 (ip), vehicle: saline sonified) was 100 % of control.
`CC(C)(C)/[N+]([O-])=C/C=C\C=C\C=O` was tested, and the T/C (dose: 50.0 mg/kg/injection, schedule: Q01DX001 (ip), vehicle: Klucel (hydroxypropylcellulose) (HPC)) was 116 % of control, the T/C (dose: 100.0 mg/kg/injection, schedule: Q01DX001 (ip), vehicle: Klucel (hydroxypropylcellulose) (HPC)) was 120 % of control and the T/C (dose: 200.0 mg/kg/injection, schedule: Q01DX001 (ip), vehicle: Klucel (hydroxypropylcellulose) (HPC)) was 122 % of control.
With `CN(N=O)C(=O)NCCSSCCNC(=O)N(C)N=O` the T/C (dose: 20.0 mg/kg/injection, schedule: Q04DX003 (ip), vehicle: saline with Tween-80) was 115 % of control, the T/C (dose: 40.0 mg/kg/injection, schedule: Q01DX009 (ip), vehicle: saline with Tween-80) was 177 % of control and the T/C (dose: 80.0 mg/kg/injection, schedule: Q04DX003 (ip), vehicle: saline with Tween-80) was 155 % of control.
For `COc1ccc(S(=O)(=O)N/N=C\c2cc([N+](=O)[O-])ccc2O)c(OC)c1OC`, the T/C [6] was 107 % of control, the T/C [7] was 101 % of control and the T/C [8] was 94 % of control.
`COc1ccc(/C(C#N)=C\c2ccc(N(C)C)cc2)cc1` was tested, and the T/C (dose: 50.0 mg/kg/injection, schedule: Q04DX003 (ip), vehicle: Klucel (hydroxypropylcellulose) (HPC)) was 108 % of control, the T/C (dose: 100.0 mg/kg/injection, schedule: Q04DX003 (ip), vehicle: Klucel (hydroxypropylcellulose) (HPC)) was 105 % of control and the T/C (dose: 200.0 mg/kg/injection, schedule: Q04DX003 (ip), vehicle: Klucel (hydroxypropylcellulose) (HPC)) was 106 % of control. The T/C [9] was 105 % of control.
In the case of `CC(C)=CCC/C(C)=C\C1OC(C)C(C)O1` (centres undefined), the T/C [6] was 104 % of control, the T/C [7] was 100 % of control and the T/C [8] was 107 % of control.
With `COc1cc2c(cc1O)C(C)Cc1cc3c(cc1N(C)CC2)OCO3` (centres undefined) the T/C (dose: 100.0 mg/kg/injection, schedule: Q04DX002 (ip), vehicle: saline) was 106 % of control, the T/C (dose: 200.0 mg/kg/injection, schedule: Q04DX002 (ip), vehicle: saline) was 113 % of control and the T/C (dose: 400.0 mg/kg/injection, schedule: Q04DX002 (ip), vehicle: saline) was 103 % of control.
`CCC(C)/C(=C\C#N)NCCN/C(=C/C#N)C(C)CC` (centres undefined) was tested, and the T/C (dose: 60.0 mg/kg/injection, schedule: Q01DX005 (ip), vehicle: Klucel (hydroxypropylcellulose) (HPC)) was 94 % of control, the T/C (dose: 120.0 mg/kg/injection, schedule: Q01DX005 (ip), vehicle: Klucel (hydroxypropylcellulose) (HPC)) was 91 % of control and the T/C (dose: 240.0 mg/kg/injection, schedule: Q01DX005 (ip), vehicle: Klucel (hydroxypropylcellulose) (HPC)) was 89 % of control.
For `COc1ccc(-c2nn3c(=O)c(Cc4ccccc4)c(O)nc3nc2-c2ccccc2)cc1`, the T/C (dose: 6.25 mg/kg/injection, schedule: Q01DX005 (ip), vehicle: Klucel (hydroxypropylcellulose) (HPC)) was 103 % of control and the T/C (dose: 12.5 mg/kg/injection, schedule: Q01DX005 (ip), vehicle: Klucel (hydroxypropylcellulose) (HPC)) was 93 % of control.
For `O=C1CCCC(C(Sc2ccccc2)(Sc2ccccc2)Sc2ccccc2)C1` (centres undefined), the T/C (dose: 50.0 mg/kg/injection, schedule: Q01DX009 (ip), vehicle: Klucel (hydroxypropylcellulose) (HPC)) was 99 % of control, the T/C (dose: 100.0 mg/kg/injection, schedule: Q01DX009 (ip), vehicle: Klucel (hydroxypropylcellulose) (HPC)) was 95 % of control and the T/C (dose: 200.0 mg/kg/injection, schedule: Q01DX009 (ip), vehicle: Klucel (hydroxypropylcellulose) (HPC)) was 93 % of control.
In the case of `N#CCC1CCCC1=O` (centres undefined), the T/C [10] was 103 % of control and the T/C [11] was 99 % of control.
For `CN(C)C(=S)S/C=C\C(=O)O`, the T/C (dose: 6.25 mg/kg/injection, schedule: Q04DX003 (ip), vehicle: Klucel (hydroxypropylcellulose) (HPC)) was 97 % of control, the T/C (dose: 12.5 mg/kg/injection, schedule: Q04DX003 (ip), vehicle: Klucel (hydroxypropylcellulose) (HPC)) was 97 % of control and the T/C (dose: 25.0 mg/kg/injection, schedule: Q04DX003 (ip), vehicle: Klucel (hydroxypropylcellulose) (HPC)) was 100 % of control. The T/C [9] was 88 % of control.
In the case of `O=C(COc1cc(Cl)c(Cl)cc1Cl)OCCOc1cc(Cl)c(Cl)cc1Cl`, the T/C (dose: 1.0 mg/kg/injection, schedule: Q01DX009 (ip), vehicle: saline with Tween-80) was 100 % of control, the T/C (dose: 2.0 mg/kg/injection, schedule: Q01DX009 (ip), vehicle: saline with Tween-80) was 100 % of control and the T/C (dose: 4.0 mg/kg/injection, schedule: Q01DX009 (ip), vehicle: saline with Tween-80) was 95 % of control.
With `CC(C)(C)N=C(CCC(C#N)(C#N)CCC(=NC(C)(C)C)Nc1c(Cl)cccc1Cl)Nc1c(Cl)cccc1Cl` the T/C [10] was 99 % of control, the T/C [11] was 92 % of control and the T/C [12] was 92 % of control.
`CC1CCC2(C(=O)O)CCC3(C)C(=CCC4C5(C)CCC(O)C(C)(C)C5CCC43C)C2C1C` (centres undefined) was tested, and the T/C (dose: 22.0 mg/kg/injection, schedule: Q01DX010 (ip), vehicle: acetone) was 108 % of control and the T/C (dose: 35.0 mg/kg/injection, schedule: Q01DX010 (ip), vehicle: acetone) was 95 % of control.
`CCC(/C=C/C1OC(=O)C=CC1C)=C\C(C)C/C=C/C(C)=C/C(C)C(=O)C(C)C(O)C(C)C/C(C)=C/C(=O)O` (centres undefined) was tested, and the T/C (dose: 12.5 micrograms/kg/injection, schedule: Q01DX005 (ip), vehicle: saline + alcohol) was 118 % of control and the T/C (dose: 100.0 micrograms/kg/injection, schedule: Q01DX005 (ip), vehicle: saline + alcohol) was 92 % of control.
For `C=CCn1c(=S)sc2ccccc21`, the T/C (dose: 6.25 mg/kg/injection, schedule: Q01DX009 (ip), vehicle: Klucel (hydroxypropylcellulose) (HPC)) was 105 % of control, the T/C (dose: 12.5 mg/kg/injection, schedule: Q01DX009 (ip), vehicle: Klucel (hydroxypropylcellulose) (HPC)) was 105 % of control and the T/C (dose: 25.0 mg/kg/injection, schedule: Q01DX009 (ip), vehicle: Klucel (hydroxypropylcellulose) (HPC)) was 104 % of control.
With `COc1cc(OC)c(OC)cc1/C=C1/N=C(c2ccccc2)OC1=O` the T/C [10] was 99 % of control, the T/C [11] was 92 % of control and the T/C [12] was 93 % of control.
In the case of `CN(C)CCCN1CCC2(CCCCC2)CC1`, the T/C [1] was 94 % of control, the T/C [2] was 98 % of control and the T/C (dose: 200.0 mg/kg/injection, schedule: Q01DX005 (ip), vehicle: saline) was 109 % of control.
